# Molecular target: T1, human LPA1 (Homo sapiens, UniProt Q92633)
# T1 construct: the full-length cDNA for human LPA1 was obtained by PCR of the reverse transcription reaction; expressed in transfected cells
# Experiment: LPA1 calcium flux assay
# Assay type: cell-based
# Settings: CHO cells expressing human LPA1, stimulated with 10 nM LPA; read-out: HLPA1 Ca Flux IC50
# Outline: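 CHO cells stably expressing cloned human LPA1, serum-starved overnight, loaded with Calcium 4 dye 1 h at 37 °C in HBSS/20 mM Hepes with 0.3% fatty-acid-free HSA. Compounds preincubated 30 min at room temperature, then cells stimulated with 10 nM LPA; intracellular Ca2+ read by fluorescence. IC50 from titration curves.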
# T1 sequence (Q92633 whole entry): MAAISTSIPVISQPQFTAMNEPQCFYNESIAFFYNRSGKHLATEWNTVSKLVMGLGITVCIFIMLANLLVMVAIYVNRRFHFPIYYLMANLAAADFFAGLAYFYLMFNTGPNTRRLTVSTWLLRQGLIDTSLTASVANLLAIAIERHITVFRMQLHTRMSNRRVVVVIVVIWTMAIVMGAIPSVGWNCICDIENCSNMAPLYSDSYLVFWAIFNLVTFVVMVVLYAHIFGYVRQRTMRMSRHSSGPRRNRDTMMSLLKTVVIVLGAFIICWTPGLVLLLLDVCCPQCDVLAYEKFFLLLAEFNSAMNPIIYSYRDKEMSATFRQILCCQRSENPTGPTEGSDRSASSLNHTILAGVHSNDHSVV
row,IC50,SMILES
1,300 to 1000 nM,"Cc1noc(-c2ccc(-c3cccc(CC4(C(=O)O)CC4)c3)cc2)c1C(O)CCCc1ccccc1 (centres unmarked) [Compound 1-251, 1-{4′-[4-(1-Hydroxy-4-phenyl-butyl)-3-methyl-isoxazol-5-yl]-biphenyl-3-ylmethyl}-cyclopropanecarboxylic acid]"
2,< 300 nM,"Cc1noc(-c2ccc(-c3ccc(C4(C(=O)O)CC4)cc3)cc2)c1C(O)C(=O)NCc1ccccc1 (centres unmarked) [Compound 1-252, 1-{4′-[4-(Benzylcarbamoyl-hydroxy-methyl)-3-methyl-isoxazol-5-yl]-biphenyl-4-yl}-cyclopropanecarboxylic acid]"
3,< 300 nM,"Cc1noc(-c2ccc(-c3ccc(C4(C(=O)O)CC4)cc3)cc2)c1C(O)C(=O)N[C@H](C)c1ccccc1 (stereo partly drawn) [Compound 1-253, 1-(4′-{4-[Hydroxy-((R)-1-phenyl-ethylcarbamoyl)-methyl]-3-methyl-isoxazol-5-yl}-biphenyl-4-yl)-cyclopropanecarboxylic acid]"
4,1000 to 50000 nM,"CC(=O)NC(CCCc1ccccc1)c1c(C)noc1-c1ccc(-c2ccc(C3(CC(=O)O)CC3)cc2)cc1 (centres unmarked) [Compound 1-256, (1-{4′-[4-(1-Acetylamino-4-phenyl-butyl)-3-methyl-isoxazol-5-yl]-biphenyl-4-yl}-cyclopropyl)-acetic acid]"
5,1000 to 50000 nM,"Cc1noc(-c2ccc(-c3ccc(C4(C(=O)O)CC4)cc3)cc2)c1C(CCCc1ccccc1)NS(C)(=O)=O (centres unmarked) [Compound 1-257, 1-{4′-[4-(1-Methanesulfonylamino-4-phenyl-butyl)-3-methyl-isoxazol-5-yl]-biphenyl-4-yl}-cyclopropanecarboxylic acid]"
6,< 300 nM,"Cc1noc(-c2ccc(-c3ccc(C4(C(=O)O)CC4)cc3)cc2)c1C(O)C(=O)N(C)Cc1ccccc1 (centres unmarked) [Compound 1-258, 1-(4′-{4-[(Benzyl-methyl-carbamoyl)-hydroxy-methyl]-3-methyl-isoxazol-5-yl}-biphenyl-4-yl)-cyclopropanecarboxylic acid]"
7,1000 to 50000 nM,"Cc1noc(-c2ccc(-c3ccc(C4(C(=O)O)CC4)cc3)cc2)c1/C=C/S(=O)(=O)Cc1ccccc1 [Compound 1-259, 1-{4′-[3-Methyl-4-((E)-2-phenylmethanesulfonyl-vinyl)-isoxazol-5-yl]-biphenyl-4-yl}-cyclopropanecarboxylic acid]"
8,< 300 nM,"Cc1noc(-c2ccc(-c3ccc(C4(C(=O)O)CC4)cc3)cc2)c1C(O)CCCc1cccnc1 (centres unmarked) [Compound 1-260, 1-{4′-[4-(1-Hydroxy-4-pyridin-3-yl-butyl)-3-methyl-isoxazol-5-yl]-biphenyl-4-yl}-cyclopropanecarboxylic acid]"
9,< 300 nM,"Cc1noc(-c2ccc(-c3ccc(C4(C(=O)O)CC4)cc3)cc2)c1C(O)CCCc1ccncc1 (centres unmarked) [Compound 1-261, 1-{4′-[4-(1-Hydroxy-4-pyridin-4-yl-butyl)-3-methyl-isoxazol-5-yl]-biphenyl-4-yl}-cyclopropanecarboxylic acid]"
10,< 300 nM,"Cc1noc(-c2ccc(-c3ccc(CC(=O)O)cc3)cc2)c1C(O)CSCc1cccc(C(F)(F)F)c1 (centres unmarked) [Compound 1-266, (4′-{4-[1-Hydroxy-2-(3-trifluoromethyl-benzylsulfanyl)-ethyl]-3-methyl-isoxazol-5-yl}-biphenyl-4-yl)-acetic acid]"
11,< 300 nM,"Cc1noc(-c2ccc(-c3ccc(C4(C(=O)O)CC4)cc3)cc2)c1N(C)C(C)CCc1ccccc1 (centres unmarked) [Compound 1-267, 1-(4′-{3-Methyl-4-[methyl-(1-methyl-3-phenyl-propyl)-amino]-isoxazol-5-yl}-biphenyl-4-yl)-cyclopropanecarboxylic acid]"
12,< 300 nM,"Cc1noc(-c2ccc(-c3ccc(C4(C(=O)O)CC4)cc3)cc2)c1NC1CCc2ccccc2C1 (centres unmarked) [Compound 1-270, 1-{4′-[3-Methyl-4-(1,2,3,4-tetrahydro-naphthalen-2-ylamino)-isoxazol-5-yl]-biphenyl-4-yl}-cyclopropanecarboxylic acid]"
13,300 to 1000 nM,"Cc1noc(-c2ccc(-c3ccc(C4(C(=O)O)CC4)cc3)cc2)c1NC1Cc2ccccc2C1 [Compound 1-271, 1-{4′-[4-(Indan-2-ylamino)-3-methyl-isoxazol-5-yl]-biphenyl-4-yl}-cyclopropanecarboxylic acid]"
14,< 300 nM,"Cc1noc(-c2ccc(-c3ccc(CC(=O)O)cc3)cc2)c1[C@H](O)CSCc1ccccc1 [Compound 1-272, {4′-[4-((S)-2-Benzylsulfanyl-1-hydroxy-ethyl)-3-methyl-isoxazol-5-yl]-biphenyl-4-yl}-acetic acid]"
15,< 300 nM,"Cc1noc(-c2ccc(-c3ccc(CCC(=O)O)cc3)cc2)c1[C@H](O)CSCc1ccccc1 [Compound 1-273, 3-{4′-[4-((S)-2-Benzylsulfanyl-1-hydroxy-ethyl)-3-methyl-isoxazol-5-yl]-biphenyl-4-yl}-propionic acid]"
16,< 300 nM,"Cc1noc(-c2ccc(-c3ccc(CCC(=O)O)cc3)cc2)c1[C@H](O)CSCc1cccc(C(F)(F)F)c1 [Compound 1-274, 3-(4′-{4-[(S)-1-Hydroxy-2-(3-trifluoromethyl-benzylsulfanyl)-ethyl]-3-methyl-isoxazol-5-yl}-biphenyl-4-yl)-propionic acid]"

row,IC50,SMILES
1,< 300 nM,"Cc1noc(-c2ccc(-c3ccc(C4(C(=O)O)CC4)cc3)cc2)c1C(O)CSC(C)(C)C (centres unmarked) [Compound 1-275, 1-{4′-[4-(2-tert-Butylsulfanyl-1-hydroxy-ethyl)-3-methyl-isoxazol-5-yl]-biphenyl-4-yl}-cyclopropanecarboxylic acid]"
2,< 300 nM,"Cc1noc(-c2ccc(-c3ccc(C4(C(=O)O)CC4)cc3)cc2)c1C(O)CSCC(F)(F)F (centres unmarked) [Compound 1-276, 1-(4′-{4-[1-Hydroxy-2-(2,2,2-trifluoro-ethylsulfanyl)-ethyl]-3-methyl-isoxazol-5-yl}-biphenyl-4-yl)-cyclopropanecarboxylic acid]"
3,< 300 nM,"Cc1noc(-c2ccc(-c3ccc(C4(C(=O)O)CC4)cc3)cc2)c1C(O)CSc1ccccc1 (centres unmarked) [Compound 1-277, 1-{4′-[4-(1-Hydroxy-2-phenylsulfanyl-ethyl)-3-methyl-isoxazol-5-yl]-biphenyl-4-yl}-cyclopropanecarboxylic acid]"
4,< 300 nM,"Cc1noc(-c2ccc(-c3ccc(C4(C(=O)O)CC4)cc3)cc2)c1NC(C)CSc1ccccc1 (centres unmarked) [Compound 1-278, 1-{4′-[3-Methyl-4-(1-methyl-2-phenylsulfanyl-ethylamino)-isoxazol-5-yl]-biphenyl-4-yl}-cyclopropanecarboxylic acid]"
5,< 300 nM,"Cc1noc(-c2ccc(-c3ccc(C4(C(=O)O)CC4)cc3)cc2)c1NC(C)COc1ccccc1 (centres unmarked) [Compound 1-279, 1-{4′-[3-Methyl-4-(1-methyl-2-phenoxy-ethylamino)-isoxazol-5-yl]-biphenyl-4-yl}-cyclopropanecarboxylic acid]"
6,< 300 nM,"Cc1noc(-c2ccc(-c3ccc(C4(C(=O)O)CC4)cc3)cc2)c1Nc1ccc2ccccc2n1 [Compound 1-280, 1-{4′-[3-Methyl-4-(quinolin-2-ylamino)-isoxazol-5-yl]-biphenyl-4-yl}-cyclopropanecarboxylic acid]"
7,< 300 nM,"Cc1noc(-c2ccc(-c3ccc(C4(C(=O)O)CC4)cc3)cc2)c1NC(C)c1cc2ccccc2s1 (centres unmarked) [Compound 1-284, 1-{4′-[4-(1-Benzo[b]thiophen-2-yl-ethylamino)-3-methyl-isoxazol-5-yl]-biphenyl-4-yl}-cyclopropanecarboxylic acid]"
8,< 300 nM,"Cc1noc(-c2ccc(-c3ccc(C4(CC(=O)O)CC4)cc3)cc2)c1NC(C)c1cc2ccccc2s1 (centres unmarked) [Compound 1-286, (1-{4′-[4-(1-Benzo[b]thiophen-2-yl-ethylamino)-3-methyl-isoxazol-5-yl]-biphenyl-4-yl}-cyclopropyl)-acetic acid]"
9,< 300 nM,"Cc1noc(-c2ccc(-c3ccc(C4(CC(=O)O)CC4)cc3)cc2)c1NC(C)CC(C)(C)c1ccccc1 (centres unmarked) [Compound 1-287, (1-{4′-[4-(1,3-Dimethyl-3-phenyl-butylamino)-3-methyl-isoxazol-5-yl]-biphenyl-4-yl}-cyclopropyl)-acetic acid]"
10,< 300 nM,"Cc1noc(-c2ccc(-c3ccc(C4(C(=O)O)CC4)cc3)cc2)c1NC(C)/C=C/c1ccccc1 (centres unmarked) [Compound 1-288, 1-{4′-[3-Methyl-4-((E)-1-methyl-3-phenyl-allylamino)-isoxazol-5-yl]-biphenyl-4-yl}-cyclopropanecarboxylic acid]"
11,1000 to 50000 nM,"Cc1noc(-c2ccc(-c3ccc(C4(C(=O)O)CC4)cc3)cc2)c1Nc1cccnc1 [Compound 1-290, 1-{4′-[3-Methyl-4-(pyridin-3-ylamino)-isoxazol-5-yl]-biphenyl-4-yl}-cyclopropanecarboxylic acid]"
12,< 300 nM,"COc1cncc(Nc2c(C)noc2-c2ccc(-c3ccc(C4(C(=O)O)CC4)cc3)cc2)c1 [Compound 1-291, 1-{4′-[4-(5-Methoxy-pyridin-3-ylamino)-3-methyl-isoxazol-5-yl]-biphenyl-4-yl}-cyclopropanecarboxylic acid]"
13,300 to 1000 nM,"Cc1noc(-c2ccc(-c3ccc(C4(C(=O)O)CC4)cc3)cc2)c1NC(=O)c1cccc(Br)c1 [Compound 1-292, 1-{4′-[4-(3-Bromo-benzoylamino)-3-methyl-isoxazol-5-yl]-biphenyl-4-yl}-cyclopropanecarboxylic acid]"
14,< 300 nM,"CCCOc1cccc(Nc2c(C)noc2-c2ccc(-c3ccc(C4(C(=O)O)CC4)cc3)cc2)n1 [Compound 1-293, 1-{4′-[3-Methyl-4-(6-propoxy-pyridin-2-ylamino)-isoxazol-5-yl]-biphenyl-4-yl}-cyclopropanecarboxylic acid]"
15,< 300 nM,"CCOc1cccc(Nc2c(C)noc2-c2ccc(-c3ccc(C4(C(=O)O)CC4)cc3)cc2)n1 [Compound 1-294, 1-{4′-[4-(6-Ethoxy-pyridin-2-ylamino)-3-methyl-isoxazol-5-yl]-biphenyl-4-yl}-cyclopropanecarboxylic acid]"

row,SMILES,IC50
1,"CCCCOc1cccc(Nc2c(C)noc2-c2ccc(-c3ccc(C4(C(=O)O)CC4)cc3)cc2)n1 [Compound 1-295, 1-{4′-[4-(6-Butoxy-pyridin-2-ylamino)-3-methyl-isoxazol-5-yl]-biphenyl-4-yl}-cyclopropanecarboxylic acid]",< 300 nM
